Test results: patent US11026901B2, “Treatment or prevention of cardiovascular events via the administration of a colchicine derivative” (Murray and Poole Enterprises, LTD., priority 2012, dated 2021)

System: patients with angiographically proven, clinically stable coronary disease
Experiment: LoDoCo trial: cardiovascular events with colchicine 0.5 mg/day added to standard secondary prevention therapy
Type: in vivo, human
Experimental: We employed a PROBE [Prospective Randomized, Open, Blinded End-point] design
All patients signed informed consent before randomization.
All other treatments were continued as usual.
The secondary outcomes were analysed similarly.

[1] = intention-to-treat, in each group
[2] = intention-to-treat, treatment [n = 282] vs control [n = 250]
[3] = on-treatment analysis, treatment [n = 243] vs control [n = 250]

COc1cc2c(c(OC)c1OC)-c1ccc(OC)c(=O)cc1[C@@H](NC(C)=O)CC2 [colchicine]
risk of a cardiovascular event, including an ACS, out of hospital cardiac arrest and non-cardio-embolic ischemic stroke (colchicine 0.5 mg/day added to standard therapy, stable coronary disease): significantly reduces
patients who died (colchicine group (ten in the control group)): 4 patients
Primary Outcome (composite ACS, out of hospital cardiac arrest or non-cardio-embolic ischemic stroke), patients with event (intention-to-treat, colchicine 0.5 mg/day [n = 282], median follow up 36 months): 15 n
number needed to treat, primary outcome (intention-to-treat, colchicine 0.5 mg/day vs control): 11
stent related ACS with evidence of acute stent thrombosis, patients [1]: 2
stent related ACS with evidence of significant in-stent stenosis, patients [1]: 2
Acute Coronary Syndrome, HR; 95% CI [2]: 0.33
Non-Stent Related ACS, HR; 95% CI [2]: 0.26
Non-Stent Related AMI, HR; 95% CI [2]: 0.25
Non-Stent Related UA, HR; 95% CI [2]: 0.27
Primary Outcome, HR 95% CI (intention-to-treat, treatment [n = 282] vs control [n = 250], cox proportional hazards): 0.33
Primary Outcome, patients with event (on-treatment analysis (tolerant and compliant beyond first month), colchicine 0.5 mg/day [n = 243]): 11 n
Acute Coronary Syndrome, HR; 95% CI [3]: 0.28 (0.13, 0.58)
Non-Cardio-Embolic Stroke, HR; 95% CI [3]: 0.27 (0.03, 2.42)
Non-Stent Related ACS, HR; 95% CI [3]: 0.21 (0.09, 0.50)
Non-Stent Related AMI, HR; 95% CI [3]: 0.30 (0.10, 0.91)
Non-Stent Related UA, HR; 95% CI [3]: 0.13 (0.03, 0.57)
OOH Cardiac Arrest, HR; 95% CI [3]: 0.55 (0.05, 6.03)
